Data taken from PubChem BioAssay AID1259407 (Chemical Carcinogenesis Research Information System (CCRIS), 2018).
Calls of active or inactive are those of the source. The rule behind the calls is not given here.

Test system: CCRIS mutagenicity, Ames/micronucleus/aberration tests
Experiment: CCRIS mutagenicity studies
[1] = Test System: AMES SALMONELLA TYPHIMURIUM, Strain/Indicator: TA100, Metabolic Activation: NONE, Method: PREINCUBATION

## O=C1c2c(Br)c(Br)c(Br)c(Br)c2C(=O)N1CCN1C(=O)c2c(Br)c(Br)c(Br)c(Br)c2C1=O
Test System: AMES SALMONELLA TYPHIMURIUM, Strain/Indicator: TA98, Metabolic Activation: HAMSTER, LIVER, S-9, AROCLOR 1254 (10%), Method: PREINCUBATION
  mutagenic call: inactive; negative
Test System: AMES SALMONELLA TYPHIMURIUM, Strain/Indicator: TA98, Metabolic Activation: NONE, Method: PREINCUBATION
  mutagenic call: inactive; negative
Test System: AMES SALMONELLA TYPHIMURIUM, Strain/Indicator: TA98, Metabolic Activation: RAT, LIVER, S-9, AROCLOR 1254 (10%), Method: PREINCUBATION
  mutagenic call: inactive; negative
Test System: AMES SALMONELLA TYPHIMURIUM, Strain/Indicator: TA100, Metabolic Activation: HAMSTER, LIVER, S-9, AROCLOR 1254 (10%), Method: PREINCUBATION
  mutagenic call: inactive; negative
[1]
  mutagenic call: inactive; negative
Test System: AMES SALMONELLA TYPHIMURIUM, Strain/Indicator: TA100, Metabolic Activation: RAT, LIVER, S-9, AROCLOR 1254 (10%), Method: PREINCUBATION
  mutagenic call: inactive; negative
Test System: AMES SALMONELLA TYPHIMURIUM, Strain/Indicator: TA1535, Metabolic Activation: HAMSTER, LIVER, S-9, AROCLOR 1254 (10%), Method: PREINCUBATION
  mutagenic call: inactive; negative
Test System: AMES SALMONELLA TYPHIMURIUM, Strain/Indicator: TA1535, Metabolic Activation: NONE, Method: PREINCUBATION
  mutagenic call: inactive; negative
Test System: AMES SALMONELLA TYPHIMURIUM, Strain/Indicator: TA1535, Metabolic Activation: RAT, LIVER, S-9, AROCLOR 1254 (10%), Method: PREINCUBATION
  mutagenic call: inactive; negative
Test System: AMES SALMONELLA TYPHIMURIUM, Strain/Indicator: TA1537, Metabolic Activation: HAMSTER, LIVER, S-9, AROCLOR 1254 (10%), Method: PREINCUBATION
  mutagenic call: inactive; negative
Test System: AMES SALMONELLA TYPHIMURIUM, Strain/Indicator: TA1537, Metabolic Activation: NONE, Method: PREINCUBATION
  mutagenic call: inactive; negative
Test System: AMES SALMONELLA TYPHIMURIUM, Strain/Indicator: TA1537, Metabolic Activation: RAT, LIVER, S-9, AROCLOR 1254 (10%), Method: PREINCUBATION
  mutagenic call: inactive; negative

## COc1cccc2c1C1(C)OOC1(C)O2 (stereo not drawn)
[1]
  mutagenic call: active; positive

## ClC(Cl)=C(Cl)c1cccc(Cl)c1Cl
Test System: AMES SALMONELLA TYPHIMURIUM, Strain/Indicator: TA98, Metabolic Activation: NONE, Method: STANDARD PLATE
  mutagenic call: inactive; negative
Test System: AMES SALMONELLA TYPHIMURIUM, Strain/Indicator: TA98, Metabolic Activation: RAT, LIVER, S-9, AROCLOR 1254, Method: STANDARD PLATE
  mutagenic call: inactive; negative
Test System: AMES SALMONELLA TYPHIMURIUM, Strain/Indicator: TA100, Metabolic Activation: NONE, Method: STANDARD PLATE
  mutagenic call: inactive; negative
Test System: AMES SALMONELLA TYPHIMURIUM, Strain/Indicator: TA100, Metabolic Activation: RAT, LIVER, S-9, AROCLOR 1254, Method: STANDARD PLATE
  mutagenic call: inactive; negative

## C/[N+]([O-])=N/CO
Test System: AMES SALMONELLA TYPHIMURIUM, Strain/Indicator: G46, Metabolic Activation: NONE, Method: STANDARD PLATE
  mutagenic call: active; positive
Test System: AMES SALMONELLA TYPHIMURIUM, Strain/Indicator: TA100, Metabolic Activation: RAT, LIVER, S-9, KC500 OR PHENOBARBITAL, Method: LIQUID SUSPENSION
  mutagenic call: active; positive
Test System: AMES SALMONELLA TYPHIMURIUM, Strain/Indicator: TA1535, Metabolic Activation: RAT, LIVER, S-9, KC500 OR PHENOBARBITAL, Method: LIQUID SUSPENSION
  mutagenic call: active; positive
Test System: CHINESE HAMSTER V-79, Strain/Indicator: V-79/OUABAIN, Metabolic Activation: NONE, Method: STANDARD PLATE
  mutagenic call: active; positive

## CN(N=O)C(=O)Oc1cccc2ccccc12
End Point: IN VITRO CHROMOSOMAL ABERRATIONS, Test System: CHINESE HAMSTER V79-E CELLS, Metabolic Activation: NONE
  mutagenic call: active; positive
Test System: E. COLI WP2, Strain/Indicator: WP2, Metabolic Activation: NONE, Method: STANDARD PLATE
  mutagenic call: active; positive
